In patent US8765742B2, “Crystalline methylthioninium chloride hydrates” (Wista Laboratories Ltd., priority 2009, dated 2014):

Assay: Thermodynamic stability of the crystalline hydrate form at room temperature as a function of relative humidity
Format: physicochemical
Details: over the whole range of relative humidity

thermodynamic stability at room temperature: thermodynamically metastable
SMILES: CN(C)c1ccc2nc3ccc(=[N+](C)C)cc-3sc2c1 [Form B, methylthioninium chloride dihydrate]
